{"source": "patent US7094909B2", "about": "“HIV protease inhibitors, compositions containing the same, their pharmaceutical uses and materials for their synthesis” (priority 2001, dated 2006)", "key": {"[1]": {"biological_target": "T1, HIV-1 protease (Q7S mutant form) (Human immunodeficiency virus type 1 group M subtype B, UniProt P04585, Q495S)", "T1 construct": "made in house", "assay": "HIV-1 Protease RET assay", "format": "biochemical", "details": "Ave. Ki (nM), RET assay, Q7S enzyme, Morrison tight binding fit", "procedure,_shortened": "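Ki values fitted with the Morrison tight-binding equation from steady-state RET cleavage (ex 340, em 490 nm) of 5 μM RE(EDANS)SQNYPIVQK(DABCYL)R. Buffer pH 4.8 acetate, 1M NaCl, 5 mM DTT, 1 mg/ml BSA, 10% DMSO; 2 nM Q7S mutant dimer, 37 °C, 12 min.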"}, "[2]": {"test_system": "HIV-1 (HIV-1 RF, HIV-1 NL4-3) in CEM-SS / MT-2 cells", "assay": "Cytopathic effect (CPE) inhibition assay (XTT/MTT dye reduction)", "format": "cell-based", "details": "Human immunodeficiency virus 1, NL43; read-out: Ave CPE EC50", "procedure,_shortened": "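Readout is XTT reduction (A450, 4 h) after six days of culturing virus-infected (moi 0.025–0.819) or mock-infected CEM-SS/MT-2 cells, 2×10^4 per well, with half-log compound series. Antiviral EC50 and cytotoxic CC50 are relative to uninfected compound-free cells. Therapeutic index is CC50 divided by EC50.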"}, "461, 84V, 90M virus": {"test_system": "461, 84V, 90M virus", "assay": "Phenotypic susceptibility assay at Virologic, Inc.", "format": "cell-based, HIV-1", "details": "Human immunodeficiency virus 1, read-out: EC50 or IC50 (mM), values with asterisk (IC50)", "procedure": "Compounds were tested in phenotypic susceptibility assays at Virologic, Inc., (See Petropoulos C. J., Parkin N. T., Limoli K. L., Lie Y. S., Wrin T., Huang W., Tian H., Smith D., Winslow G. A., Capon D J, Whitcomb J M. 2000, “A novel phenotypic drug susceptibility assay for human immunodeficiency virus type 1,” Antimicrob Agents Chemother 44(4):920–928) or using the assay described here. MT-2 cells were infected with either HIV-1 NL4-3 or HIV-1 NL4-3([…]) and incubated in the presence of serial 0.5 log dilutions of test compounds. Three days later, culture supernatants were collected and virus production, as determined by p24 ELISA, was assayed. Percent inhibition was calculated as p24 concentration in compound-treated samples as compared to infected, compound-free controls. Inhibition of viral replication is determined by measuring reduction in HIV p24 present in the culture supernatant, using a Beckman-Coulter p24HIV-1 Ag EIA kit and following the supplied protocol. Absorbance is read on a MRX microplate reader (Dynex Technologies). The EC50 was calculated as the concentration of compound that effected a decrease in the p24 production by infected, compound-treated cells to 50% of that produced by infected, compound-free cells."}}, "data": [{"smiles": "Cc1c(O)cccc1C(=O)N[C@@H](Cc1ccccc1)[C@H](O)C(=O)N1CSC(C)(C)[C@H]1C(=O)N[C@H]1CCOc2ccccc21", "note": "[Example A17, (R)-3-((2S,3S)-2-Hydroxy-3-{[1-(3-hydroxy-2-methyl-phenyl)-methanoyl]-amino}-4-phenyl-butanoyl)-5,5-dimethyl-thiazolidine-4-carboxylic acid (S)-chroman-4-ylamide]", "values": [{"measurement": "Ki", "setting": "[1]", "value": "< 0.1", "unit": "nM"}, {"measurement": "EC50", "setting": "[2]", "value": 24, "unit": "nM"}, {"measurement": "IC50", "setting": "461, 84V, 90M virus", "value": 49, "unit": "nM"}, {"measurement": "melting point", "value": "135 to 136", "unit": "°C"}]}, {"smiles": "Cc1c(O)cccc1C(=O)N[C@@H](Cc1ccccc1)[C@H](O)C(=O)N1CSC(C)(C)[C@H]1C(=O)N[C@H]1CCc2ccccc21", "note": "[Example A35, (R)-3-((2S,3S)-2-Hydroxy-3-{[1-(3-hydroxy-2-methyl-phenyl)-methanoyl]-amino}-4-phenyl-butanoyl)-5,5-dimethyl-thiazolidine-4-carboxylic acid (S)-indan-1-ylamide]", "values": [{"measurement": "Ki", "setting": "[1]", "value": "< 0.1", "unit": "nM"}, {"measurement": "EC50", "setting": "[2]", "value": 16, "unit": "nM"}, {"measurement": "IC50", "setting": "461, 84V, 90M virus", "value": 41, "unit": "nM"}, {"measurement": "melting point", "value": "204 to 206", "unit": "°C"}]}, {"smiles": "Cc1c(O)cccc1C(=O)N[C@@H](Cc1ccccc1)[C@H](O)C(=O)N1CSC(C)(C)[C@H]1C(=O)N[C@@H]1C=CCCC1", "note": "[Example A32, (R)-3-((2S,3S)-2-Hydroxy-3-{[1-(3-hydroxy-2-methyl-phenyl)-methanoyl]-amino}-4-phenyl-butanoyl)-5,5-dimethyl-thiazolidine-4-carboxylic acid (S)-cyclohex-2-enylamide]", "values": [{"measurement": "Ki", "setting": "[1]", "value": "< 0.1", "unit": "nM"}, {"measurement": "EC50", "setting": "[2]", "value": 12, "unit": "nM"}, {"measurement": "IC50", "setting": "461, 84V, 90M virus", "value": 55, "unit": "nM"}, {"measurement": "melting point", "value": "177 to 179", "unit": "°C"}]}]}
